Read-outs that look alike come from different tables or passages of the source. Ends that are not written are not given here.

Consider four compounds from patent EP1510220B1 (priority 1993, dated 1994).

For one data set, the system named is Quiescent EX cells. The data set is described as follows: Stimulation of DNA synthesis by mitogens in quiescent EX cells. The class given is cell-based, human. The conditions noted are these: [3H]thymidine 16-32 h after stimulation, vs serum-free control; 20% FCS, IGF-1 25 ng/ml, EGF and bFGF 100 ng/ml, TGF-beta 10 ng/ml, AII and ET-1 100 nM. As for the experimental part:
Quiescent EX cells were then exposed to various mitogens, and stimulation of DNA synthesis was determined by incorporation of [^3H]thymidine 16-32 h after stimulation. DNA synthesis was stimulated by 20% FCS by 8.0±1.5 fold, compared to control cells that remained in serum-free D-MEM throughout. PDGF-BB and PDGF-AA caused a ≈ 3.0 fold stimulation of DNA synthesis. Insulin-like growth factor (IGF-1; 25 ng/ml) provided a 1.2 fold stimulation.

The test system of the next data set is Quiescent ED cells. Description: Stimulation of DNA synthesis by mitogens in quiescent ED cells. The class given is cell-based, human. The conditions noted are these: [3H]thymidine 16-40 h after stimulation, vs serum-free control; 20% FCS. As for the experimental part:
Quiescent ED cells were exposed to various mitogens, and stimulation of DNA synthesis was determined by [^3H]thymidine incorporation 16-40 h after stimulation. DNA synthesis was stimulated by 20% FCS by 25±6 fold, compared to control cells that remained in serum-free D-MEM throughout. PDGF-BB stimulated ≈3.0 fold, but PDGF-AA stimulated only 2.0 fold.

The subject of data set [1] is B054 cells (baboon smooth muscle cells). The data set is described as follows: cells. The class given is cell-based. The conditions noted are these: for minimal effective concentration: Papio anubis.
Data set [2] has as its system Vascular smooth muscle cells.
Data set [3] has as its system B054 cells (baboon smooth muscle cells). The data set is described as follows: cells. The class given is cell-based. The note with it: Papio anubis, read-out: minimum effective dose (MED), protein synthesis assay.

As for `CC[C@H](C)[C@H](NC(=O)[C@H](Cc1ccc(O)cc1)NC(=O)[C@@H](NC(=O)[C@H](CCCNC(=N)N)NC(=O)[C@@H](N)CC(=O)O)C(C)C)C(=O)N[C@@H](Cc1cnc[nH]1)C(=O)N1CCC[C@H]1C(=O)N[C@@H](Cc1ccccc1)C(=O)O` [AII, angiotensin II], the “stimulation of DNA synthesis” value is listed as “did not significantly stimulate DNA synthesis” with Quiescent EX cells and “did not stimulate DNA synthesis” in the data set on Quiescent ED cells.

Consider `CC(=O)O[C@@H]1/C=C\[C@@](C)(O)C(=O)[C@@H](C)C/C=C\[C@H]2[C@H](O)C(C)=C(C)[C@H]3C(Cc4ccccc4)NC(=O)[C@]132` (stereo partly shown) [cytochalasin C], for which, in data set [1], the “minimum effective dose (MED), DNA synthesis assay” value came out at 0.01 µg/mL.

In the case of `CN[C@@H]1C[C@H]2O[C@@](C)([C@@H]1OC)n1c3ccccc3c3c4c(c5c6ccccc6n2c5c31)C(=O)NC4` [staurosporin], the cytotoxicity grade in data set [2] stood at 2. Further, the minimal effective concentration stood at 0.1 µg/mL in data set [3] (5 min); 0.01 µg/mL in data set [3] (24 h); 0.001 µg/mL in data set [1] (5 min, read-out: minimum effective dose (MED), DNA assay); 0.001 µg/mL in data set [1] (24 h, read-out: minimum effective dose (MED), DNA synthesis assay).

“endothelin-1 (CSCSSLMDKECVYFCHLDIIW; ends and bridges not checked; cysteine pairing not given here; UniProt P05305 53-73, looked up) [ET-1]”: the results for the “stimulation of DNA synthesis” value in the data set with Quiescent EX cells and in the data set on Quiescent ED cells were “did not significantly stimulate DNA synthesis” and “did not stimulate DNA synthesis”, respectively.
